IC50 data for 1 molecule are collected here from BindingDB's records for doi:10.1021/jm401801t (University of Geneva, 2014).

In general, IC50 refers to the midpoint of a concentration-inhibition curve.

Experiment [1] can be described thus: Inhibition of human HSP90beta expressed in yeast assessed as growth inhibition of host after 72 hrs.
The nature of experiment [2]: Inhibition of human HSP90alpha expressed in yeast assessed as growth inhibition of host after 72 hrs.

For the molecule `COCC(=O)Nc1c(C(=O)OC)n(CCC(C)C)c2ncc(NC(C)CCC=C(C)C)cc12` (configuration not stated), the IC50 in experiment [1] was 120 µM; in experiment [2] it was 308 µM.
